From patent US12410211B2, “V1A receptor partial agonist and method of use” (PharmaIN Corporation, priority 2020, dated 2025)
Read-outs that look alike come from different tables or passages of the source. Marks after values point to notes of the source that are not given here. Where a SMILES comes first, the peptide text is derived from it. Bridges are numbered along the chain shown (N, C = ends). [ ]: non-standard residue; d: D form. Aad = N[C@@H](CCCC(=O)O)C(=O)O; Dap = NC[C@H](N)C(=O)O; Mpa = O=C(O)CCS

Assays:
V1a receptor = molecular target: T1, V1a receptor (Homo sapiens, UniProt P37288); assay: V1a Human Vasopressin GPCR Cell Based Agonist Calcium Flux Assay; details: for Emax: read-out: V1a Highest agonist effect (% of AVP)
T1 construct: host or cells: CHO cells
Experimental: Peptides of Formula (I) include Mpa-Tyr-Phe-Hgn-Asn-Cys-Pro-Lys(X)a-Gly-NH2 [SEQ ID NO. 24]; where (X)a is a peptide with “a” residues and each residue X is independently selected from Gly, and a D- or L-amino acid version of Ala, Lys, Orn, Glu, and Asp, where “a” is 0-10. V1a Human Vasopressin GPCR Cell Based Agonist Calcium Flux Assay were conducted at Eurofins Cerep SA (France) on a fee for service basis. Human recombinant CHO cells expressing human V1 receptors were distributed in microplates. Intracellular calcium signal was detected by fluorimetry, and the signal was acquired before and after addition of a known agonist concentration. The following agonist concentrations were tested (nM); 0.0128, 0.064, 0.32, 1.6, 8, 40, 200, and 1,000. […] All assays were performed in duplicate. Changes in fluorescence intensity reflected changes in the concentration of free cytosolic calcium. […] The half-maximal effective concentration (EC50) was determined by a non-linear regression analysis of the concentration-response curves generated with mean replicate values using Hill equation curve fitting (Cerep, I'Evescault, France).
V1a Human Vasopressin GPCR Cell Based Agonist Calcium Flux Assay were conducted using human recombinant CHO cells expressing human V1 receptor. Briefly, human recombinant CHO cells expressing human V1 receptor were distributed in microplates at 4.5×10^4 cells/well. The fluorescent probe (Fluo4 Direct, Invitrogen) mixed with probenicid in HBSS buffer (Invitrogen) complemented with 20 mM HEPES (Invitrogen) (pH 7.4) is then added into each well and equilibrated with the cells for 60 min at 37° C. then 15 min at 22° C. Thereafter, the assay plates are positioned in a microplate reader (CellLux, PerkinElmer) which is used for the addition of the test compound, reference agonist or HBSS buffer (basal control), and the measurements of changes in fluorescence intensity which varies proportionally to the free cytosolic Ca^2+ ion concentration. The following agonist concentrations were tested (nM), 0.0128, 0.064, 0.32, 1.6, 8, 40, 200, and 1,000. […] All assays were performed in duplicate. Changes in fluorescence intensity reflected changes in the concentration of free cytosolic calcium. […] Referring to FIG. 3 and Table 4, the half-maximal effective concentration (EC50) was determined by non-linear regression analysis of the concentration-response curves generated with mean replicate values using Hill equation curve fitting (Cerep, I'Evescault, France).

[1] = Therapeutic index (NOAEL/NOEL): paleness, lethargy, ataxia observation in Sprague-Dawley rats (Example 7); format: in vivo; details: for Paleness (Duration, hrs; SD) / Highest dose with no-observed effect level or paleness (NOEL) / NOAEL/NOEL (therapeutic index) / NOAEL at 24 h / NOAEL: S.C.; for NOAEL at 24 h: male, Sprague-Dawley; for NOAEL at 24 h / NOAEL: read-out: Highest dose with no-observed adverse effect level without lethargy (NOAEL)
Source text: As used herein, the term “therapeutic index” (TI; also referred to as therapeutic ratio) is a quantitative measure of the relative safety of a drug. […] For the purpose of the present application, lethargy is a lack of energy and/or sleepiness which is visually observed in rats as a lack of mobility, such as a lack of mobility even in the presence of human activity. For the purpose of present specification, peripheral vasoconstriction is visually observed by a paleness of the extremities (e.g., skin of hands, feet, ears, and lips). In rats, peripheral vasoconstriction is determined by a side-by-side comparison of ear paleness in treated subjects (e.g., Sprague Dawley rats, a white rat with easily visualizable changes in redness/paleness) vs. untreated control subjects. The V1a agonist (or partial agonist) with a high therapeutic index will have a better safety profile than that with a low therapeutic index by providing a wider margin of safety for dosing during the treatment of the disease. This NOAEL/NOEL ratio, being a quantitative measure of the relative safety, is a comparison of the amount of a therapeutic agent that causes the therapeutic effect (useful effect, vasoconstriction for the purpose of the present specification) to the amount that causes toxicity. A V1a agonist that causes severe vasoconstriction will affect not only the peripheral vessels, with several layer of smooth muscles, but also other vessels present in other organs (e.g., heart, lungs, kidney, brain) and this will result in observed lethargy and eventually ataxia. A partial agonist is less likely to reach such an extreme level of vasoconstriction and is believed to have a higher therapeutic index.
In this study, 8 to 10 weeks male Sprague-Dawley rats (Charles River; Wilmington, MA) under isoflurane anesthesia (n=3 or 6) were intravenously (IV) or subcutaneously (SC) injected or administered with various test articles. Prior to administration of test articles, the injection area was clipped free of fur, to allow for clear visualization of the dose site, and animal weight was measured and recorded. Animals were housed two per cage. […] Lethargy is when the animal eyes cannot fully open and is associated deep breathing and limited of movement even in the presence of human.

[2] = Table 3, CHO cells expressing human V1 receptor, read-out: Estimated V1a EC50 (nM), n = 2
[3] = at the Marked adverse effect dose
[4] = at the Mild adverse effect dose
[5] = Table 3, cells printed in μM, read-out: Estimated V1a EC50, n = 2

T1 sequence (P37288 whole entry): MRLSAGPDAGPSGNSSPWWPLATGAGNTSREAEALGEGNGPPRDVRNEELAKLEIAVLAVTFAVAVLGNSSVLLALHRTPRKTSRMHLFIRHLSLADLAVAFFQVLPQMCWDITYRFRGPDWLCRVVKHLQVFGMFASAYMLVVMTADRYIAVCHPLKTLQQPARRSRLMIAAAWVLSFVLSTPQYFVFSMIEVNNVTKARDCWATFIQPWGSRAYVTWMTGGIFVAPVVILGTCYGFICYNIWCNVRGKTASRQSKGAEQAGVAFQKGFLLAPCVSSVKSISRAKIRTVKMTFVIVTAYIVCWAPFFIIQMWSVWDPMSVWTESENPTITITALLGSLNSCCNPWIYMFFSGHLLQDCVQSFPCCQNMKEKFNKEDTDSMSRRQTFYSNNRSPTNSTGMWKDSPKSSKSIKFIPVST

SMILES	EC50 (V1a receptor; [2]) [nM]	Emax (V1a receptor; Table 3, n = 2) [%]	Paleness (Duration, hrs; SD) [1, 3]	Paleness (Duration, hrs; SD) [1, 4]	Paleness (Duration, hrs; SD) ([1]; at the NOAEL dose)	Paleness (Duration, hrs; SD) ([1]; at the NOEL dose)	Highest dose with no-observed effect level or paleness (NOEL) ([1]; rat) [mg/kg]	NOAEL/NOEL (therapeutic index) ([1]; rat)	NOAEL at 24 h ([1]; in vivo, sc, rat) [mg/kg]	Marked adverse effect (Lowest dose first showed Ataxia) ([1]; rat, in vivo, sc) [mg/kg]	Mild adverse effect (Lowest dose first showed Lethargy) ([1]; rat, in vivo, sc) [mg/kg]	EC50 (V1a receptor; FIG. 2 / FIG. 3 legend, n=2, read-out: EC50 for V1a receptor) [nM]	EC50 (V1a receptor; [5]) [nM]	NOAEL ([1]; in vivo, sc, rat) [mg/kg]	Ataxia (duration, hrs; SD) ([1]; rat, in vivo, sc)
NCC(=O)NCC(=O)NCC(=O)NCC(=O)NCC(=O)NCCCC[C@H](NC(=O)[C@@H]1CCCN1C(=O)[C@@H]1CSSCCC(=O)N[C@@H](Cc2ccc(O)cc2)C(=O)N[C@@H](Cc2ccccc2)C(=O)N[C@@H](CCCC(N)=O)C(=O)N[C@@H](CC(N)=O)C(=O)N1)C(=O)NCC(N)=O [SEQ ID NO. 12, Mpa-Tyr-Phe-Hgn-Asn-Cys-Pro-Lys(X)a-Gly-NH2; (X)a = (Gly)5]	50.1	29.6	(>6.69)* hrs	(>6.65)* hrs	(5.79 ± 0.08) hrs	None Observed	0.0015	100	0.15	1.5	0.5	–	–	–	–
NCC(=O)NCC(=O)NCC(=O)NCC(=O)NCC(=O)NCC(=O)NCC(=O)NCCCC[C@H](NC(=O)[C@@H]1CCCN1C(=O)[C@@H]1CSSCCC(=O)N[C@@H](Cc2ccc(O)cc2)C(=O)N[C@@H](Cc2ccccc2)C(=O)N[C@@H](CCCC(N)=O)C(=O)N[C@@H](CC(N)=O)C(=O)N1)C(=O)NCC(N)=O [SEQ ID NO. 14, Mpa-Tyr-Phe-Hgn-Asn-Cys-Pro-Lys(X)a-Gly-NH2; (X)a = (Gly)7]	30.9	26.1	(>6.44)* hrs	(>6.39)* hrs	(5.86 ± 0.13) hrs	None Observed	0.0015	100	0.15	1.5	0.5	–	–	–	–
NCC(=O)NCC(=O)NCC(=O)NCC(=O)NCC(=O)NCC(=O)NCC(=O)NCC(=O)NCCCC[C@H](NC(=O)[C@@H]1CCCN1C(=O)[C@@H]1CSSCCC(=O)N[C@@H](Cc2ccc(O)cc2)C(=O)N[C@@H](Cc2ccccc2)C(=O)N[C@@H](CCCC(N)=O)C(=O)N[C@@H](CC(N)=O)C(=O)N1)C(=O)NCC(N)=O [SEQ ID NO. 15, Mpa-Tyr-Phe-Hgn-Asn-Cys-Pro-Lys(X)a-Gly-NH2; (X)a = (Gly)8]	226	24.8	(>6.19)* hrs	(>6.17)* hrs	(5.68 ± 0.06) hrs	None Observed	0.0015	100	0.15	1.5	0.5	–	–	–	–
NCC(=O)NCC(=O)NCC(=O)NCC(=O)NCC(=O)NCC(=O)NCC(=O)NCC(=O)NCC(=O)NCCCC[C@H](NC(=O)[C@@H]1CCCN1C(=O)[C@@H]1CSSCCC(=O)N[C@@H](Cc2ccc(O)cc2)C(=O)N[C@@H](Cc2ccccc2)C(=O)N[C@@H](CCCC(N)=O)C(=O)N[C@@H](CC(N)=O)C(=O)N1)C(=O)NCC(N)=O [SEQ ID NO. 16, Mpa-Tyr-Phe-Hgn-Asn-Cys-Pro-Lys(X)a-Gly-NH2; (X)a = (Gly)9]	–	28.1	(>6.99)* hrs	(>6.14)* hrs	(7.14 ± 0.11) hrs	None observed	0.005	100	0.5	5.0	1.5	105	–	–	–
NC[C@H](NC(=O)[C@@H]1CCCN1C(=O)[C@@H]1CSSCCC(=O)N[C@@H](Cc2ccc(O)cc2)C(=O)N[C@@H](Cc2ccccc2)C(=O)N[C@@H](CCCC(N)=O)C(=O)N[C@@H](CC(N)=O)C(=O)N1)C(=O)NCC(N)=O [SEQ ID NO. 17, Mpa-Tyr-Phe-Hgn-Asn-Cys-Pro-Dap-Gly-NH2] ([Mpa]YF[Aad](NH2)NCP[Dap]G-NH2; disulfide 1-6)	–	3.5	(>6.18)* hrs	(>5.92)* hrs	(6.11 ± 0.07) hrs	None observed	0.014	34	–	>9.95	4.78	–	> 10000	0.478	None observed
NCCCC[C@@H](NC(=O)[C@@H]1CCCN1C(=O)[C@@H]1CSSCCC(=O)N[C@@H](Cc2ccc(O)cc2)C(=O)N[C@@H](Cc2ccccc2)C(=O)N[C@@H](CCCC(N)=O)C(=O)N[C@@H](CC(N)=O)C(=O)N1)C(=O)NCC(N)=O [SEQ ID NO. 18, Mpa-Tyr-Phe-Hgn-Asn-Cys-Pro-dLys-Gly-NH2]	–	0.2	–	–	–	–	0.005	30	–	1.5	0.5	–	> 10000	0.15	–
